From patent US20150101077A1, “INDUCIBLE PROMOTER SEQUENCES FOR REGULATED EXPRESSION AND METHODS OF USE” (PIONEER HI-BRED INTERNATIONAL INC, priority 2012, published 2015)

Legend:
1.0 kb ZmCAS1 promoter [1] = test: X-Gluc GUS staining of rice callus transformed with PHP16974; format: cell-based, Oryza sativa cv.Kitaake; details: PHP16974 callus events, 100 mg/liter CBSU, 24 hours, FIG. 9
From the text: To determine whether the ZmCAS1 promoter could conditionally regulate expression in response to safener treatment or heat treatment in plant species other than maize, Agrobacterium-mediated transformation was used to generate integrated copies of PHP16974 (ZmCAS1HindIII Pro:GUS) comprising the truncated 1.0 kb ZmCAS1 promoter for studies in rice. Scutellum from 10-14 day old germinating seeds (Oryza sativa cv.Kitaake) was used for rice transformation experiment (Toki. 1997, PI Mol. Biol Reporter 15:16-21). Bialophos-resistant callus events containing PHP16974 were selected and screened for their ability to respond to safener application. Four independent bialophos-resistant events were grown on maintenance media or maintenance media containing 100 mg/liter CBSU for 24 hours, removed and stained with X-Gluc. […] PHP16974 bialophos-resistant events were regenerated into plants. Leaf tissue was collected from these plants and used for DNA hybridization analyses to identify single-copy PHP16974 insertions. These plants were allowed to set selfed seed and were used for subsequent studies to monitor GUS expression under the transcriptional control of the ZmCAS1 promoter. Sixteen seed were selected from 2 single-copy PHP16974 events were sterilized, grown on hormone-free media at 28° C. or 37° C. for 48 hours and allowed to germinate. […]

ZmCAS1 transcript = test: Northern blot of maize RNA with ZmCAS1 probe after CBSU treatment; format: in vivo; details: for ZmCAS1 hybridization signal in anther mRNA: FIG. 2
Protocol: Wild type maize plants were grown to the meiosis stage of microspore development. Plants were watered with 30 mg 2-CBSU and allowed to develop to the quartet and early vacuolate stage of microspore development. PolyA+ anther RNA was isolated from wild type control and CBSU treated plants and stored. A cDNA library was constructed from mRNAs isolated from CBSU-treated plants, arrayed onto nylon filters and stored. A cDNA subtraction library was generated using the Clontech PCR-Select cDNA Subtraction Kit (#K1804-1) following the manufacturer's instructions to enrich for CBSU-specific transcripts. Using this approach anther PolyA+mRNA from wild-type plants was used to enrich for transcripts found in the anther PolyA+mRNA from CBSU treated plants. This cDNA subtraction library was subcloned into pSPORT (BRL) vector, colonies plated, picked and sequenced. Among the vector inserts sequenced, two DNA sequences were present at a high proportion, at more than 10% of the inserts sequenced, and referred to as ZmCAS1c-1 (477 bp; SEQ ID NO: 1) and ZmCAS1c-2 (438 bp; SEQ ID NO: 2) (QBSU-Anther-Subtract 1). Both ZmCAS1c-1 and ZmCAS1c-2 had sequence identity to mannitol dehydrogenases from plants. ZmCASlc-1 and ZmCAS1c-2 DNA fragments were used as hybridization probes to screen the filter arrayed cDNA CBSU-anther library described above to isolate full-length cDNA containing hybridizing clones. Both ZmCAS1c-1 and ZmCAS1c-2 identified identical cDNA clones. […]
(§1) To determine whether the ZmCAS1 cDNA was 1) induced in maize anthers by CBSU-treatment and 2) reduced or absent in tapetum and microspore-ablated maize anthers from CBSU-treated 5126:DAM plants, a 477 bp ZmCAS1c-1 DNA fragment (SEQ ID NO:1), as well as DNA fragments from ZmMS45, Zm5126, ZmActin, and ZmUbiquitin (Cigan et al. 2001. […] MS45 and 5126 transcripts were easily detected in anther RNAs from male-fertile plants but absent in anther RNAs from male-sterile plants (FIG. 2) further supporting the observation that these RNAs are localized to the maize tapetum (Cigan et al. 2001. Sex. Plant Reprod. 14, 135-142).

1.7 kb ZmCAS1 promoter [2] = test: X-Gluc GUS staining of maize callus transformed with PHP16975; format: cell-based; details: room temperature, 18 hours, FIG. 4A
From the text: Agrobacterium-mediated transformation of immature embryos was used to generate integrated copies of PHP16974 (SEQ ID NO:11; ZmCAS1HindIII Pro:GUS/35SPAT) comprising the 1.0 kb ZmCAS1 promoter (SEQ ID NO:9), PHP16975 (SEQ ID NO:12, ZmCAS1BamPro:GUS/35SPAT) comprising the 1.7 kb ZmCAS1 promoter (SEQ ID NO:10) and PHP16972 (SEQ ID NO:13, ZmCAS1 HindIII Pro:MS45/35SPAT) comprising the 1.0 kb ZmCAS1 promoter or PHP16973 (SEQ ID NO:14, ZmCASIBamPro:MS45/35SPAT:) comprising the 1.7 kb ZmCAS1 promoter.
To determine whether the 1.7 kb or the 1.0 kb ZmCAS1 promoter from maize could direct induced expression of the GUS reporter, three bialophos-resistant callus events were placed onto maintenance media and maintenance media containing increasing amounts of the safener CBSU-2 for at room temperature for 18 hours, removed and stained with X-Gluc to detect GUS activity.

1.0 kb ZmCAS1 promoter [3] = test: X-Gluc GUS staining of maize callus transformed with PHP16974; format: cell-based; details: seven PHP16974 callus events, 100 mg/liter CBSU, room temperature, FIG. 4B
1.7 kb ZmCAS1 promoter [4] = test: Western analysis of MS45 protein in ms45/ms45 maize plants transformed with PHP16973; format: in vivo; details: PHP16973 plants watered with 30 mg of CBSU, collected 2 days later
1.7 kb ZmCAS1 promoter [5] = test: GUS expression in leaf punches of maize plants transformed with PHP16975; format: in vivo; details: 2 days after watering with 30 mg of 2-CBSU, 3 PHP16975 plants, FIG. 5
Protocol: Plants were also regenerated from callus events containing PHP16975 and grown in the greenhouse to approximately the 5 leaf stage. At this stage of development, leaf punches from plants regenerated from the 3 bialophos-resistant events shown in FIG. 5 were collected pre- (C) and post-watering (S) with 30 mg of 2-CBSU to examine GUS expression in leaf in response to application of the safener.

1.0 kb ZmCAS1 promoter [6] = test: Northern analysis of MS45 mRNA in ms45/ms45 maize callus transformed with PHP16972; format: cell-based; details: 100 mg/liter CBSU, room temperature, 18 hours, FIG. 6
From the text: T-DNA vectors PHP16972 (SEQ ID NO:13, ZmCAS1HindIII Pro: MS45/35S:PAT) and PHP16973 (SEQ ID NO: 14, ZmCAS1 BamPro:MS45/35S:PAT) were used to transform maize callus which was generated to contain a segregating population of MS45/ms45 heterozygous and ms45/ms45 homozygous mutant plants. In order to detect MS45 RNA or protein expression under the control of the 1.0 or 1.7 kb ZmCAS promoter in maize anthers, plants containing a naturally occurring mutation in the maize MS45 gene which results in loss of MS45 RNA and protein were used for these studies. Pollen from MS45/ms45 plants were used to fertilize male-sterile ms45/ms45 plants for the purpose of generating embryos which would be ms45/ms45 as described in Cigan et al 2001. […] Five random bialophos-resistant callus events containing integrated copies of PHP16972 were placed onto maintenance media (FIG. 5, (−)) and maintenance media containing 100 mg/liter safener CBSU-2 (FIG. 5 (+)) at room temperature for 18 hours, removed and PolyA+RNA prepared and used for RNA analysis as described (Cigan et al. 2001. Sex. Plant Reprod. 14, 135-142) using the ZmMS45 and ZmActin probes for hybridization analysis. […] A very low signal was observed when callus was grown in the absence of CBSU. Actin was used as a control probe to show nearly equivalent RNA levels were present in all samples. […]

IN2-2 transcript = test: Northern blot of maize anther RNA with IN2-2 probe after CBSU treatment; format: in vivo; details: CBSU-treated male-fertile and male-sterile plants, FIG. 2
Protocol: Wild type maize plants were grown to the meiosis stage of microspore development. Plants were watered with 30 mg 2-CBSU and allowed to develop to the quartet and early vacuolate stage of microspore development. PolyA+ anther RNA was isolated from wild type control and CBSU treated plants and stored. A cDNA library was constructed from mRNAs isolated from CBSU-treated plants, arrayed onto nylon filters and stored. A cDNA subtraction library was generated using the Clontech PCR-Select cDNA Subtraction Kit (#K1804-1) following the manufacturer's instructions to enrich for CBSU-specific transcripts. Using this approach anther PolyA+mRNA from wild-type plants was used to enrich for transcripts found in the anther PolyA+mRNA from CBSU treated plants. […]
as §1

## NC(=O)NS(=O)(=O)c1ccccc1Cl [CBSU, N-(aminocarbonyl)-2-chlorobenzenesulfonamide]
1.0 kb ZmCAS1 promoter [1]
  GUS expression in rice callus: strong GUS expression
ZmCAS1 transcript; maize callus or leaf treated with CBSU, FIG. 3
  ZmCAS1 hybridization in mRNAs from callus, leaf and anther: strong hybridization
ZmCAS1 transcript; male-fertile CBSU-treated plants (+, F)
  ZmCAS1 hybridization signal in anther mRNA: strong hybridization signals
ZmCAS1 transcript; male-sterile 5126:DAM CBSU-treated plants (+, S)
  ZmCAS1 hybridization signal in anther mRNA: reduced ZmCAS1 signal
1.7 kb ZmCAS1 promoter [2]; 10 mg/l CBSU
  GUS expression in callus: low levels of GUS expression
1.7 kb ZmCAS1 promoter [2]; 100 mg/l CBSU
  GUS expression in callus: strong GUS expression
1.0 kb ZmCAS1 promoter [3]
  GUS expression in callus: inducible GUS expression
1.7 kb ZmCAS1 promoter [4]; FIG. 7
  MS45 protein in leaf extracts: increased steady-state levels of the MS45 protein
1.7 kb ZmCAS1 promoter [4]; FIG. 8
  MS45 protein in anther extracts: Increased MS45 protein
1.7 kb ZmCAS1 promoter [5]
  GUS expression in leaf punches: strong GUS expression
1.0 kb ZmCAS1 promoter [6]
  MS45 mRNA hybridization signal in callus: strong induction of a hybridization signal
IN2-2 transcript
  IN2-2 hybridization signal in anther mRNA: strong hybridization signals
